What is called Ki is a measure of affinity in units of concentration, obtained from inhibition or displacement. Higher therefore signals lower affinity. By IC50 is commonly meant the concentration at which inhibition is half-maximal. Low readings indicate greater potency, high ones weaker potency.

The first assay concerns the target T1, Aromatase (Homo sapiens, UniProt P11511).
T1 sequence (P11511 whole entry): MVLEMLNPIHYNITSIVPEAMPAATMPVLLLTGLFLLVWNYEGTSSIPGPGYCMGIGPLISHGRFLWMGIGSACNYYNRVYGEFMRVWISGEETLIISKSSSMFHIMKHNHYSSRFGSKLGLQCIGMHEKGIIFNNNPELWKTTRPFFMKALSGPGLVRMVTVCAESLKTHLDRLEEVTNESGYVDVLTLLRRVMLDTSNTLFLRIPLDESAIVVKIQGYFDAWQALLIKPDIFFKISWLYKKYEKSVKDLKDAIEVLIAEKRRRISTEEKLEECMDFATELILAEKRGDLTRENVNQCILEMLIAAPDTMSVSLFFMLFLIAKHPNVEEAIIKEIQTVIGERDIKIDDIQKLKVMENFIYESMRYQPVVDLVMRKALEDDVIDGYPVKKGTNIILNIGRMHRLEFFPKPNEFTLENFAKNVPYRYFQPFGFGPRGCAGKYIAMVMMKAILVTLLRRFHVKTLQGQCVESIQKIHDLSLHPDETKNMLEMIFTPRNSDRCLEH
The assay is described as follows: Inhibition of human aromatase expressed in CHO cells. The assay is classed as cell-based.
Compound `O=c1c(-c2ccc(O)cc2)coc2cc(O)ccc12` [DAIDZEIN] came in with a Ki of 100 µM.

`O=c1c(O)c(-c2ccccc2)oc2cc(O)cc(O)c12` [GALANGIN] returned a Ki of 100 µM.

`O=c1c(-c2ccc(O)cc2)coc2cc(O)cc(O)c12` [GENISTEIN] registered an inhibition constant Ki of 100 µM.

For the next assay, the target named is T1, Aromatase. The assay is described as follows: Inhibition of human aromatase by fluorometric assay.
Compound `O=c1c(O)c(-c2ccc(O)c(O)c2)oc2c(O)c(O)cc(O)c12` [GOSSYPETIN] registered an IC50 of 11 µM.

`O=C1C[C@@H](c2ccc(O)cc2)Oc2cc(O)ccc21` [LIQUIRTIGENIN]: the 50% inhibitory concentration (IC50) stood at 0.34 µM.

Take `O=c1c(O)c(-c2cc(O)c(O)c(O)c2)oc2cc(O)cc(O)c12` [MYRICETIN]: the IC50 was 10 µM.
